Measurements reported in US20210161997A1, “TREATING DISEASES VIA TARGETED MODULATION OF GENE SIGNALING NETWORKS” (Camp4 Therapeutics Corporation, priority 2018, published 2021).
Where a name gives a salt, the structure may show the parent alone.

Test system: ANGPTL3
Assay: RNA-seq of ANGPTL3 expression in compound-treated primary human hepatocytes
Type: cell-based
Settings: additional compounds (Table 13), linear fold change
Description: Human hepatocytes were obtained from two donors from Massachusetts General Hospital, namely MGH54 and MGH63, and one donor from Lonza, namely HUM4111B. Cryopreserved hepatocytes were cultured in plating media for 16 hours, transferred to maintenance media for 4 hours. Cultured on serum-free media for 2 hours, then a compound was added. The hepatocytes were maintained on the serum-free media for 16 hours prior to gene expression analysis. Primary human hepatocytes were stored in the vapor phase of a liquid nitrogen freezer (about −130° C.).
Human hepatocytes cultured as described above were plated in 24-well format, adding 375,000 cells per well in a volume of 500 ul plating medium. Four hours before treatment, cells were washed with PBS and the medium was changed to either: fresh maintenance medium (complete) or modified maintenance medium.
Compound stocks were prepared at 1000× final concentration and added in a 2-step dilution to the medium to reduce risk of a compound precipitating out of solution when added to the cells, and to ensure reasonable pipetting volumes. One at a time, each compound was first diluted 10-fold in warm (about 37° C.) modified maintenance medium (initial dilution=ID), mixed by vortexing, and the ID was diluted 100-fold into the cell culture (e.g. 5.1 ul into 1 well of a 24-well plate containing 0.5 mL medium). The plate was mixed by carefully swirling and after all wells were treated and returned to the incubator overnight. If desired, separate plates/wells were treated with vehicle-only controls and/or positive controls. If using multi-well plates, controls were included on each plate. After about 18 hours, cells were harvested for further analysis, e.g., ChIP-seq, RNA-seq, ATAC-seq, etc.
This protocol is a modified version of the following protocols: MagMAX mirVana Total RNA Isolation Kit User Guide (Applied Biosystems #MAN0011131 Rev B.0), NEBNext Poly(A) mRNA Magnetic Isolation Module (E7490), and NEBNext Ultra Directional RNA Library Prep Kit for Illumina (E7420) (New England Biosystems #E74901).
The MagMAX mirVana kit instructions (the section titled “Isolate RNA from cells” on pages 14-17) were used for isolation of total RNA from cells in culture. Two hundred μl of Lysis Binding Mix was used per well of the multiwell plate containing adherent cells (usually a 24-well plate).
For mRNA isolation and library prep, the NEBNext Poly(A) mRNA Magnetic Isolation Module and Directional Prep kit was used. RNA isolated from cells above was quantified, and prepared in […] of each sample in 50 μl of nuclease-free water. This protocol may be run in microfuge tubes or in a 96-well plate.
All pass filter reads from each sample were mapped against the human genome (assembly GRCh38/GCA_000001405.15 “no alt” analysis set merged with hs38d1/GCA_000786075.2) using two pass mapping via STAR version 2.5.3a (alignment parameters alignIntronMin=20; alignIntronMax=1000000; outFilterMismatchNmax=999; outFilterMismatchNoverLmax=0.05; outFilterType=BySJout; outFilterMultimapNmax=20; alignSJoverhangMin=8; alignSJDBoverhangMin=1; alignMatesGapMax=1000000) (Dobin et al., Bioinformatics (2012) 29(1):15-21). Genomic alignments were converted to transcriptome alignments based on reference transcript annotations from the Human GENCODE Gene Set release 24 (Harrow et al., Genome Res. (2012) 22(9): 1760-1774). Using unique and multimapped transcriptomic alignments, gene-level abundance estimates were computed using RSEM version 1.3.0 (Li and Dewey, BMC Bioinformatics (2011) 12:323) in a strand-aware manner, and including confidence interval sampling calculations, to arrive at posterior mean estimates (PME) of abundances (counts and normalized FPKM—fragments per kilobase of exon per million mapped fragments) from the underlying Bayesian model. Standard QC were applied (read integrity, mapping statistics, library complexity, fragment bias) to remove unsatisfactory samples.

Structure (SMILES)	ANGPTL3-LINEAR FOLD CHANGE
Cl.Clc1cccc(N2CCNCC2)c1 [1(3-Chlorophenyl)piperazine HCl]	0.4414
CCN1CCN(Cc2ccc(-c3cc4c(N[C@H](C)c5ccccc5)ncnc4[nH]3)cc2)CC1 [AEE788 (NVP-AEE788)]	0.1684
COc1cc(N2CCC(N3CCN(C)CC3)CC2)ccc1Nc1ncnc(Nc2ccccc2S(=O)(=O)C(C)C)n1 [ASP3026]	0.3923
N#Cc1ccc2[nH]c(O)c(-c3ccc(CN4CCOCC4)cn3)c2c1 [AZD1080]	0.2238
COc1cc(C)c(/C=C/C(C)=C/C=C/C(C)=C/C(=O)O)c(C)c1C [Acitretin]	0.4763
Nc1ncn([C@@H]2O[C@H](CO)[C@@H](O)[C@H]2O)c(=O)n1 [Azacitidine]	0.2316
CC[C@@H]1C(=O)N(C)c2cnc(Nc3ccc(C(=O)NC4CCN(C)CC4)cc3OC)nc2N1C1CCCC1 [BI 2536]	0.2045
CC(C)NC(=O)C1CCC(n2c(NC(=O)c3ccc(F)cc3)nc3ccc(CN4CCC(C(C)(C)O)CC4)cc32)CC1 (stereo not shown) [Belizatinib (TSR-011), Belizatinib]	0.3121
COCCOCOc1cc2ccc(-c3ccc(C(=O)O)cc3)cc2cc1C12CC3CC(CC(C3)C1)C2 [CD 2665]	0.395
NC(=O)N[C@@H](CCC(=O)O)C(=O)O [Carglumic Acid]	0.1975
C[C@@H](NCCCc1cccc(C(F)(F)F)c1)c1cccc2ccccc12 [Cinacalcet HCl]	0.3789
O=C(c1ccc(F)c(F)c1Nc1ccc(I)cc1F)N1CC(O)([C@@H]2CCCCN2)C1 [Cobimetinib (GDC-0973, RG7420), Cobimetinib]	0.2333
CO[C@H]1C[C@@H]2CC[C@@H](C)[C@@](O)(O2)C(=O)C(=O)N2CCCC[C@H]2C(=O)O[C@H]([C@H](C)C[C@@H]2CC[C@@H](OCCO)[C@H](OC)C2)CC(=O)[C@H](C)/C=C(\C)[C@@H](O)[C@@H](OC)C(=O)[C@H](C)C[C@H](C)/C=C/C=C/C=C/1C [Everolimus (RAD001), Everolimus]	0.483
Cc1cnc(Nc2ccc(OCCN3CCCC3)cc2)nc1Nc1cccc(S(=O)(=O)NC(C)(C)C)c1 [Fedratinib (SAR302503, TG101348), Fedratinib]	0.1119
COCCCC/C(=N\OCCN)c1ccc(C(F)(F)F)cc1 [Fluvoxamine maleate]	0.3231
COc1cc2c(Oc3ccc(NC(=O)C4(C(=O)Nc5ccc(F)cc5)CC4)cc3F)ccnc2cc1OCCCN1CCOCC1 [Foretinib (GSK1363089), Foretinib]	0.3368
CCNC(=O)Nc1ccc(-c2nc3c(c(N4CCOC[C@@H]4C)n2)CCN(C2COC2)C3)cc1 [GDC-0349]	0.4506
C[C@@H](Oc1cc(-n2cnc3ccc(CN4CCN(C)CC4)cc32)sc1C(N)=O)c1ccccc1C(F)(F)F [GSK461364]	0.3078
CNc1nc(-c2ccc3c(N)n[nH]c3c2)cc(N2C[C@@H](C(=O)NC3CCCCC3)CC[C@H]2C)n1 [GSK2334470]	0.4538
O=C(O)Cc1cccc(OCCCN(Cc2cccc(C(F)(F)F)c2Cl)CC(c2ccccc2)c2ccccc2)c1 [GW3965]	2.071
c1ccc2c(CCNc3ccc(Nc4ccncc4)cc3)c[nH]c2c1 [JNJ-26854165 (Serdemetan), Serdemetan]	0.1817
Cc1c(OCC(F)(F)F)ccnc1C[S+]([O-])c1nc2ccccc2[nH]1 (stereo not shown) [Lansoprazole]	0.4763
O=C1CCc2c(Oc3ccc4c(c3)[C@@H]3[C@H](O4)[C@H]3c3nc4ccc(C(F)(F)F)cc4[nH]3)ccnc2N1 [Lifirafenib (BGB-283), Lifirafenib]	0.3585
O=C(O)c1ccc(Nc2ncc3c(n2)-c2ccc(Cl)cc2C(c2c(F)cccc2F)=NC3)cc1 [MLN8054]	0.2755
FC(F)(F)c1ccc(/C=C/c2nc(COc3ccc(CCCCn4ccnn4)cc3)co2)cc1 [Mubritinib (TAK 165), Mubritinib]	0.3392
